Among the test systems are HCC-2998 colon; HCT-116 colon; K-562 leukemia; M14 melanoma; NCI-H522 lung; OVCAR-5 ovarian; SK-MEL-5 melanoma; SK-OV-3 ovarian; SR leukemia; HL-60(TB) leukemia.
Holding throughout (test): DTP human tumour cell line panel, 48 h

Values joined by “and” are separate entries in the source; they are usually repeats but may differ in a detail not shown here. Equal values may be shown once.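 Values below derive from 48-hour exposures of cells grown in 96-well plates, with endpoints linearly interpolated between the two concentrations bracketing the appropriate inhibition level. GI50 = concentration required for 50% inhibition of growth. TGI denotes the concentration required for complete inhibition of growth.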

As to `O=C(/C(=N/Nc1ccccc1)c1ccc([N+](=O)[O-])cc1)c1ccc([N+](=O)[O-])cc1`, the TGI in the experiment on HCC-2998 colon, with HCT-116 colon, in the experiment on K-562 leukemia, with M14 melanoma, with NCI-H522 lung and in the experiment on OVCAR-5 ovarian was greater than 100 µM each time. The TGI in the experiment with SK-MEL-5 melanoma, in the experiment with SK-OV-3 ovarian and in the experiment on SR leukemia was greater than 100 µM each time.

For the compound `Cc1cccc(Nc2cc(Cl)nc(SCC(=O)O)n2)c1C`, the TGI in the experiment on HCT-116 colon, in the experiment on HL-60(TB) leukemia, in the experiment with K-562 leukemia, with M14 melanoma, in the experiment on NCI-H522 lung and with OVCAR-5 ovarian was greater than 100 µM throughout. The TGI in the experiment with SK-MEL-5 melanoma, in the experiment on SK-OV-3 ovarian and in the experiment with SR leukemia was greater than 100 µM throughout.

As to `COc1cc(-c2cc3ncccc3c3[nH]c(=O)c4cccnc4c23)cc(OC)c1OC`, the GI50 (as a rule, the concentration at which growth is held to half of that of the control) is 2.08 µM in the experiment on HCC-2998 colon; 0.392 µM with K-562 leukemia; 0.425 µM in the experiment on M14 melanoma; 0.328 µM in the experiment with NCI-H522 lung; greater than 100 µM in the experiment on OVCAR-5 ovarian; 0.51 µM in the experiment with SK-MEL-5 melanoma. Moreover, the GI50 in the experiment with SK-OV-3 ovarian was 1.35 µM; in the experiment with SR leukemia, 0.359 µM. For the same compound, the concentration for total growth inhibition (TGI) (in general, the concentration giving total growth inhibition) with HCC-2998 colon was greater than 100 µM; with K-562 leukemia, greater than 100 µM; in the experiment on M14 melanoma, greater than 100 µM; in the experiment on NCI-H522 lung it was 82.5 µM; in the experiment with OVCAR-5 ovarian it was greater than 100 µM; in the experiment with SK-MEL-5 melanoma it was 3.17 µM. Further, the TGI in the experiment with SK-OV-3 ovarian is greater than 100 µM; in the experiment on SR leukemia it was 71.9 µM.

Take `CCC(=O)C(C(=O)CC)c1c(OC(=O)c2ccccc2)ccc(O)c1C(=O)OC`: the total growth inhibition concentration (TGI) with HCT-116 colon, in the experiment with HL-60(TB) leukemia, in the experiment on K-562 leukemia, in the experiment with M14 melanoma, in the experiment with NCI-H522 lung and in the experiment with OVCAR-5 ovarian was greater than 100 µM in each case. Moreover, the TGI in the experiment with SK-MEL-5 melanoma, in the experiment with SK-OV-3 ovarian and in the experiment on SR leukemia was greater than 100 µM each time.

`Clc1ccc(OCc2nnc3n2N=C(c2ccccc2)CS3)c(Cl)c1`: the TGI with HCC-2998 colon, in the experiment on HCT-116 colon, with HL-60(TB) leukemia, in the experiment with K-562 leukemia, with NCI-H522 lung and with OVCAR-5 ovarian was greater than 100 µM each time. Further, the TGI in the experiment on SK-MEL-5 melanoma, in the experiment with SK-OV-3 ovarian and in the experiment on SR leukemia was greater than 100 µM each time.

For `CCN(CC)c1ccc(N=Nc2ccc(-c3nc4cccn(C)c-4n3)cc2)cc1`, the TGI in the experiment on HCT-116 colon is 15.6 µM; in the experiment on HL-60(TB) leukemia, 4.79 µM; in the experiment on K-562 leukemia, 11.9 µM; in the experiment with M14 melanoma, 24.4 µM; in the experiment on NCI-H522 lung, 19.9 µM; with OVCAR-5 ovarian, 26.3 µM. Also, the total growth inhibition concentration (TGI) in the experiment on SK-MEL-5 melanoma worked out at 16.8 µM; in the experiment with SK-OV-3 ovarian, 43.5 µM; in the experiment with SR leukemia, 14.8 µM.

In the case of `Cc1ccccc1N=Nc1c(-c2ccccc2)nn(C(=O)CC(=O)Nc2cccc(Cl)c2)c1-c1ccccc1`, the TGI in the experiment with HCC-2998 colon was greater than 31.6 µM; in the experiment on HCT-116 colon, 17.8 µM; in the experiment with HL-60(TB) leukemia, 24.5 µM; with K-562 leukemia it was greater than 31.6 µM; in the experiment with M14 melanoma, greater than 31.6 µM; with OVCAR-5 ovarian it was greater than 31.6 µM. The TGI in the experiment on SK-MEL-5 melanoma was 24.9 µM; in the experiment on SK-OV-3 ovarian it was greater than 31.6 µM; in the experiment with SR leukemia, 20.3 µM.

Consider `S=C(CSc1ccccc1)Nc1cccc2ccccc12`, for which the TGI with HCT-116 colon, in the experiment with HL-60(TB) leukemia, with K-562 leukemia, in the experiment on M14 melanoma, in the experiment on NCI-H522 lung and in the experiment on OVCAR-5 ovarian was greater than 100 µM each time. Besides, the TGI was 36.6 µM in the experiment with SK-MEL-5 melanoma, greater than 100 µM with SK-OV-3 ovarian and 68.8 µM in the experiment on SR leukemia.

Take `CCCCN1C(=O)/C(=c2\sc3n(c2=O)C2C(NN=3)N(CC)C(=O)N2CC)c2ccccc21` (centres undefined): the GI50 in the experiment with HCC-2998 colon is 1.38 µM; with HL-60(TB) leukemia, 1.05 µM; with K-562 leukemia, 0.542 µM; in the experiment with M14 melanoma, 0.479 µM; in the experiment on NCI-H522 lung it was 0.508 µM; with SK-OV-3 ovarian, 0.911 µM. The 50% growth inhibitory concentration (GI50) with SR leukemia was 0.36 µM. In addition, the total growth inhibition concentration (TGI) with HCC-2998 colon was 3.81 µM; in the experiment with HL-60(TB) leukemia, 3.46 µM; in the experiment on K-562 leukemia, greater than 100 µM; in the experiment with M14 melanoma, 2.31 µM; in the experiment with NCI-H522 lung, 3.44 µM; with SK-OV-3 ovarian, 5.89 µM.

On to `Nc1ccccc1C(=O)NC(=O)Nc1ccc(Oc2ncc(Br)cn2)c(Cl)c1`, for which the TGI in the experiment on HCC-2998 colon is 0.19 µM; in the experiment on HCT-116 colon, 12.1 µM; with HL-60(TB) leukemia, 0.0451 µM and 0.232 µM; with K-562 leukemia, 18 µM; in the experiment on M14 melanoma, 2.08 µM; in the experiment on OVCAR-5 ovarian, 51.7 µM. Moreover, the TGI was 1.71 µM with SK-MEL-5 melanoma, 3.2 µM with SK-OV-3 ovarian and 1.5 µM with SR leukemia. Also, the results for the GI50 in the experiment on HL-60(TB) leukemia, with K-562 leukemia and with SK-MEL-5 melanoma were 0.00489 µM, 0.00659 µM and 0.00688 µM, respectively.

Turning to `CCOc1ccc(C(C)=O)cc1NC(=O)c1cccc(-c2nnn(CC)n2)c1`, the GI50 in the experiment with HCC-2998 colon was 1.71 µM; in the experiment with HCT-116 colon it was 0.419 µM; in the experiment with K-562 leukemia it was 0.454 µM; in the experiment on M14 melanoma it was 0.396 µM; with NCI-H522 lung, 0.147 µM; with OVCAR-5 ovarian, 9.34 µM. Also, the GI50 is 0.465 µM in the experiment on SK-MEL-5 melanoma, 0.689 µM in the experiment with SK-OV-3 ovarian and 0.401 µM with SR leukemia. Besides, the TGI with HCC-2998 colon was greater than 100 µM; in the experiment with HCT-116 colon, greater than 100 µM; in the experiment on K-562 leukemia, greater than 100 µM; with M14 melanoma, greater than 100 µM; in the experiment with NCI-H522 lung it was 0.971 µM; with OVCAR-5 ovarian, greater than 100 µM. Further, the TGI with SK-MEL-5 melanoma is 16.5 µM; in the experiment with SK-OV-3 ovarian, 24.8 µM; with SR leukemia it was greater than 100 µM.

Turning to `CCC(C)(O)c1cn(-c2ccc(S(=O)(=O)O)cc2)nn1` (centres undefined), the TGI in the experiment on HCC-2998 colon, with HCT-116 colon, in the experiment with HL-60(TB) leukemia, in the experiment with K-562 leukemia, with M14 melanoma and in the experiment on NCI-H522 lung was greater than 100 µM throughout. For the same compound, the TGI in the experiment with OVCAR-5 ovarian, with SK-MEL-5 melanoma and with SK-OV-3 ovarian was greater than 100 µM each time.

Take `Cc1cn2c(/C=N/N=C(N)N)c(-c3ccncc3)nc2s1`: the GI50 in the experiment on HCC-2998 colon was 14.6 µM; with HCT-116 colon it was 10.7 µM; in the experiment with HL-60(TB) leukemia it was 19.7 µM; in the experiment on K-562 leukemia it was 15.4 µM; with M14 melanoma, 16.7 µM; in the experiment on NCI-H522 lung, 17.7 µM. Also, the figures for the GI50 in the experiment with OVCAR-5 ovarian, in the experiment with SK-MEL-5 melanoma and with SR leukemia were 17.8 µM, 19.8 µM and 5.3 µM, respectively. For the same compound, the TGI with HCC-2998 colon was found to be 27.7 µM; in the experiment with HCT-116 colon, 22.5 µM; with HL-60(TB) leukemia, 40.1 µM; with K-562 leukemia it was 34 µM; in the experiment with M14 melanoma, 30.3 µM; in the experiment on NCI-H522 lung, 59.7 µM. The total growth inhibition concentration (TGI) was 31.7 µM in the experiment with OVCAR-5 ovarian, 34.6 µM with SK-MEL-5 melanoma and 17.5 µM with SR leukemia.

For the compound `O=c1c2cccnc2ncn1CCCN1CCCC1`, the TGI in the experiment on HCT-116 colon, with K-562 leukemia, with M14 melanoma, with NCI-H522 lung, in the experiment with OVCAR-5 ovarian and in the experiment with SK-MEL-5 melanoma was greater than 100 µM each time. In addition, the TGI in the experiment with SK-OV-3 ovarian and with SR leukemia was greater than 100 µM in each case.

Regarding `Cc1ccc(O)c(NC2=C(Cl)C(=O)N(Cc3ccccc3)C2=O)c1`, the GI50 in the experiment with HCT-116 colon was 31.2 µM; with K-562 leukemia it was 12.4 µM; in the experiment on M14 melanoma, 22.5 µM; with NCI-H522 lung, 13.1 µM; in the experiment on OVCAR-5 ovarian it was 33.3 µM; in the experiment with SK-MEL-5 melanoma, 21.1 µM. Moreover, the GI50 in the experiment with SK-OV-3 ovarian is 80.5 µM; in the experiment on SR leukemia, 18.3 µM. Moreover, the TGI is greater than 100 µM with HCT-116 colon; 59.6 µM with K-562 leukemia; 70.6 µM in the experiment with M14 melanoma; 29.9 µM in the experiment on NCI-H522 lung; 89.1 µM with OVCAR-5 ovarian; 40.7 µM in the experiment with SK-MEL-5 melanoma. Also, the TGI in the experiment on SK-OV-3 ovarian was greater than 100 µM; with SR leukemia, 84.9 µM.

In the case of `CCCCCCCCCCOC(=O)c1cc[n+](C)cc1`, the TGI turned out to be 36.6 µM in the experiment with HCT-116 colon; 35.4 µM in the experiment on HL-60(TB) leukemia; 34.2 µM in the experiment on K-562 leukemia; 32.2 µM in the experiment with M14 melanoma; 30 µM in the experiment on NCI-H522 lung; 26.8 µM with OVCAR-5 ovarian. For the same compound, the results for the TGI with SK-MEL-5 melanoma, in the experiment on SK-OV-3 ovarian and with SR leukemia were 33.6 µM, 29.6 µM and 32.7 µM, respectively.

Turning to `COc1cc(NC(C)CCCNC(C)C)c2ncccc2c1OC` (centres undefined), the GI50 was greater than 100 µM in the experiment on HCC-2998 colon; 27.8 µM in the experiment on HCT-116 colon; 14.2 µM in the experiment with HL-60(TB) leukemia; 32.8 µM in the experiment on K-562 leukemia; greater than 100 µM with M14 melanoma; greater than 100 µM with OVCAR-5 ovarian. The GI50 in the experiment with SK-MEL-5 melanoma was greater than 100 µM; with SK-OV-3 ovarian it was greater than 100 µM; in the experiment with SR leukemia, 70.8 µM. Further, the TGI in the experiment on HCC-2998 colon was greater than 100 µM; in the experiment with HCT-116 colon it was greater than 100 µM; in the experiment on HL-60(TB) leukemia, 72.4 µM; with K-562 leukemia, greater than 100 µM; with M14 melanoma, greater than 100 µM; with OVCAR-5 ovarian it was greater than 100 µM. Besides, the TGI with SK-MEL-5 melanoma, with SK-OV-3 ovarian and in the experiment on SR leukemia was greater than 100 µM each time.

Take `NC(=S)N/N=C1/CN(c2ccc(Cl)c(Cl)c2)CC(=O)C1c1nc2ccccc2s1` (centres undefined): the TGI with HCC-2998 colon, with HCT-116 colon, in the experiment on HL-60(TB) leukemia, in the experiment with K-562 leukemia, with M14 melanoma and in the experiment on NCI-H522 lung was greater than 100 µM each time. The TGI with OVCAR-5 ovarian, with SK-MEL-5 melanoma and with SK-OV-3 ovarian was greater than 100 µM each time.

These data come from PubChem BioAssay (NCI).
